From patent US8895738B2, “Mesoionic pyrido [1, 2-A] pyrimidine pesticides” (E I du Pont de Nemours and Company, priority 2010, dated 2014)
Where a name gives a salt, the structure may show the parent alone.

Columns and labels:
Type in all cases: in vivo
[1] = tested on: rice brown planthopper (Nilaparvata lugens); test: Test H: control of rice brown planthopper on rice plant; conditions: 120 h, assessed after 5 days, read-out: control efficacy: mortality; for mortality at 10 ppm: sprayed at 10 ppm; for mortality at 2 ppm: sprayed at 2 ppm
Protocol: For evaluating control of rice brown planthopper (Nilaparvata lugens) through contact and/or systemic means, the test unit consisted of a plastic pot containing a 13-cm-tall rice plant covered with steel wire mesh (50 mesh) supported by a wire frame. A small amount of sand was added to form a good seal between the bottom of the wire mesh, the soil surface and the top edge of the plastic pot.
Test compounds were formulated and sprayed at 10, 2 and/or 0.4 ppm, and the tests were replicated three times in a manner similar to the one described for Test A. After spraying, the test units were allowed to dry for 2 h before they were post-infested with 10 brown planthoppers (3rd instar nymphs, 7-9 days post-hatch). After 5 days, each test unit was visually assessed for insect mortality.

[2] = tested on: corn planthopper (Peregrinus maidis); test: Test D: control of corn planthopper on maize plant, contact and/or systemic; conditions: 144 h, assessed after 6 days, read-out: control efficacy: mortality; for mortality at 50 ppm: sprayed at 50 ppm; for mortality at 10 ppm: sprayed at 10 ppm; for mortality at 2 ppm: sprayed at 2 ppm; for mortality at 250 ppm: sprayed at 250 ppm
Protocol: For evaluating control of corn planthopper (Peregrinus maidis) through contact and/or systemic means, the test unit consisted of a small open container with a 3-4-day-old maize plant (spike) inside. White sand was added to the top of the soil prior to application. Test compounds were formulated and sprayed at 250, 50, 10 and/or 2 ppm, and replicated three times as described for Test A. After spraying, the test units were allowed to dry for 1 h before they were post-infested with ˜15-20 nymphs (18 to 21 day old) by sprinkling them onto the sand with a salt shaker. A black, screened cap was placed on the top of each test unit, and the test units were held for 6 days in a growth chamber at 22-24° C. and 50-70% relative humidity. Each test unit was then visually assessed for insect mortality.

[3] = tested on: potato leafhopper (Empoasca fabae); test: Test E: control of potato leafhopper on Soleil bean plant, contact and/or systemic; conditions: 144 h, assessed after 6 days, read-out: control efficacy: mortality; for mortality at 10 ppm: sprayed at 10 ppm; for mortality at 50 ppm: sprayed at 50 ppm; for mortality at 2 ppm: sprayed at 2 ppm
Protocol: For evaluating control of potato leafhopper (Empoasca fabae) through contact and/or systemic means, the test unit consisted of a small open container with a 5-6-day-old Soleil bean plant (primary leaves emerged) inside. White sand was added to the top of the soil and one of the primary leaves was excised prior to application.
Test compounds were formulated and sprayed at 250, 50, 10 and/or 2 ppm, and the tests were replicated three times as described for Test A. After spraying, the test units were allowed to dry for 1 h before they were post-infested with 5 potato leafhoppers (18-21-day-old adults). A black, screened cap was placed on the top of each test unit, and the test units were held for 6 days in a growth chamber at 24° C. and 70% relative humidity. Each test unit was then visually assessed for insect mortality.

[4] = tested on: green peach aphid (Myzus persicae); test: Test B: control of green peach aphid on radish plant, contact and/or systemic; conditions: 144 h, assessed after 6 days; for mortality at 50 ppm: sprayed at 50 ppm
Text: For evaluating control of green peach aphid (Myzus persicae) through contact and/or systemic means, the test unit consisted of a small open container with a 12-15-day-old radish plant inside. This was pre-infested by placing on a leaf of the test plant 30-40 aphids on a piece of leaf excised from a culture plant (cut-leaf method). The aphids moved onto the test plant as the leaf piece desiccated. After pre-infestation, the soil of the test unit was covered with a layer of sand.
Test compounds were formulated and sprayed at 250, 50 and/or 10 ppm as described for Test A. The applications were replicated three times. After spraying of the formulated test compound, each test unit was allowed to dry for 1 h and then a black, screened cap was placed on top. The test units were held for 6 days in a growth chamber at 19-21° C. and 50-70% relative humidity. Each test unit was then visually assessed for insect mortality.

[5] = tested on: rice green leafhopper (Nephotettix virescens); test: Test G: control of rice green leafhopper on rice plant; conditions: 120 h, assessed after 5 days, read-out: control efficacy: mortality; for mortality at 10 ppm: sprayed at 10 ppm; for mortality at 50 ppm: sprayed at 50 ppm
Protocol: For evaluating control of rice green leafhopper (Nephotettix virescens) through contact and/or systemic means, the test unit consisted of a plastic pot containing a 13-cm-tall rice plant covered with steel wire mesh (50 mesh) supported by a wire frame. A small amount of sand was added to form a good seal between the bottom of the wire mesh, the soil surface and the top edge of the plastic pot.
Test compounds were formulated and sprayed at 50, 10 and/or 2 ppm, and the tests were replicated three times in a manner similar to the one described for Test A. After spraying, the test units were allowed to dry for 2 h before they were post-infested with 10 green leafhoppers (3rd instar nymphs, 7-9 days post-hatch). After 5 days, each test unit was visually assessed for insect mortality.

[6] = tested on: cotton melon aphid (Aphis gossypii); test: Test C: control of cotton melon aphid on cotton plant, contact and/or systemic; conditions: sprayed at 50 ppm
Text: For evaluating control of cotton melon aphid (Aphis gossypii) through contact and/or systemic means, the test unit consisted of a small open container with a 6-7-day-old cotton plant inside. This was pre-infested with 30-40 insects on a piece of leaf according to the cut-leaf method described for Test B, and the soil of the test unit was covered with a layer of sand.
Test compounds were formulated and sprayed at 250 and/or 50 ppm as described for Test B. The applications were replicated three times. After spraying, the test units were maintained in a growth chamber and then visually rated as described for […].

O=c1c(-c2ccccc2F)c([O-])[n+](Cc2cncnc2)c2ccccn12 [Compound 9, 3-(2-fluorophenyl)-2-hydroxy-4-oxo-1-(5-pyrimidinylmethyl)-4H-pyrido[1,2-a]pyrimidinium inner salt]
≥ 80%: mortality at 10 ppm [1] | mortality at 50 ppm [2] | mortality at 10 ppm [3] | mortality at 50 ppm [3]

O=c1c(-c2cccc(Cl)c2)c([O-])[n+](Cc2cncnc2)c2ccccn12 [Compound 19, 3-(3-chlorophenyl)-2-hydroxy-4-oxo-1-(5-pyrimidinylmethyl)-4H-pyrido[1,2-a]pyrimidinium inner salt]
≥ 80%: mortality at 50 ppm [4] | mortality at 10 ppm [2] | mortality at 50 ppm [2] | mortality at 10 ppm [3] | mortality at 50 ppm [3]

O=c1c(-c2cc(Cl)cc(Cl)c2)c([O-])[n+](Cc2cncnc2)c2ccccn12 [Compound 16, 3-(3,5-dichlorophenyl)-2-hydroxy-4-oxo-1-(5-pyrimidinylmethyl)-4H-pyrido[1,2-a]pyrimidinium inner salt]
≥ 80%: mortality at 50 ppm [4] | mortality at 10 ppm [2] | mortality at 50 ppm [2]

O=c1c(-c2cc(Cl)cc(C(F)(F)F)c2)c([O-])[n+](Cc2cncnc2)c2ccccn12 [Compound 15, 3-[3-chloro-5-(trifluoromethyl)phenyl]-2-hydroxy-4-oxo-1-(5-pyrimidinylmethyl)-4H-pyrido[1,2-a]pyrimidinium inner salt]
≥ 80%: mortality at 10 ppm [1] | mortality at 10 ppm ([4]; sprayed at 10 ppm) | mortality at 50 ppm [4] | mortality at 2 ppm [2] | mortality at 10 ppm [2] | mortality at 50 ppm [2] | mortality at 2 ppm [3] | mortality at 10 ppm [3] | mortality at 50 ppm [3]

O=c1c(-c2cccc(Br)c2)c([O-])[n+](Cc2cncnc2)c2ccccn12 [Compound 8]
≥ 80%: mortality at 50 ppm [3]

O=c1c(-c2ccc(F)cc2F)c([O-])[n+](Cc2cncnc2)c2ccccn12 [Compound 6, 3-(2,4-difluorophenyl)-2-hydroxy-4-oxo-1-(5-pyrimidinylmethyl)-4H-pyrido[1,2-a]pyrimidinium inner salt]
≥ 80%: mortality at 10 ppm [3] | mortality at 50 ppm [3]

Cc1cccc(-c2c([O-])[n+](Cc3cncnc3)c3ccccn3c2=O)c1 [Compound 11, 2-hydroxy-3-(3-methylphenyl)-4-oxo-1-(5-pyrimidinylmethyl)-4H-pyrido[1,2-a]pyrimidinium inner salt]
≥ 80%: mortality at 10 ppm [1] | mortality at 10 ppm [2] | mortality at 50 ppm [2] | mortality at 10 ppm [3] | mortality at 50 ppm [3] | mortality at 10 ppm [5] | mortality at 50 ppm [5]

O=c1c(-c2cccc(OC(F)(F)F)c2)c([O-])[n+](Cc2cncnc2)c2ccccn12 [Compound 7, 2-hydroxy-4-oxo-1-(5-pyrimidinylmethyl)-3-[3-(trifluoromethoxy)phenyl]-4H-pyrido[1,2-a]pyrimidinium inner salt]
≥ 80%: mortality at 50 ppm [6] | mortality at 0.4 ppm ([1]; sprayed at 0.4 ppm) | mortality at 2 ppm [1] | mortality at 10 ppm [1] | mortality at 2 ppm [3] | mortality at 10 ppm [3] | mortality at 50 ppm [3] | mortality at 2 ppm ([5]; sprayed at 2 ppm) | mortality at 10 ppm [5] | mortality at 50 ppm [5]

O=c1c(-c2ccc(F)cc2)c([O-])[n+](Cc2cncnc2)c2ccccn12 [Compound 2, 3-(4-fluorophenyl)-2-hydroxy-4-oxo-1-(5-pyrimidinylmethyl)-4H-pyrido[1,2-a]pyrimidinium inner salt]
≥ 80%: mortality at 2 ppm [1] | mortality at 10 ppm [1] | mortality at 2 ppm [2] | mortality at 10 ppm [2] | mortality at 50 ppm [2] | mortality at 250 ppm [2] | mortality at 10 ppm [3] | mortality at 50 ppm [3] | mortality at 10 ppm [5] | mortality at 50 ppm [5]

Cc1cc(-c2ccc(C#N)cc2C)cc(-c2c([O-])[n+](Cc3cncnc3)c3ccccn3c2=O)c1 [Compound 18, 3-(4′-cyano-5,2′-dimethyl[1,1′-biphenyl]-3-yl)-2-hydroxy-4-oxo-1-(5-pyrimidinylmethyl)-4H-pyrido[1,2-a]pyrimidinium inner salt]
≥ 80%: mortality at 50 ppm [2] | mortality at 50 ppm [3]

O=c1c(-c2cc(Cl)c(F)c(Cl)c2)c([O-])[n+](Cc2cncnc2)c2ccccn12 [Compound 17, 3-(3,5-dichloro-4-fluorophenyl)-2-hydroxy-4-oxo-1-(5-pyrimidinylmethyl)-4H-pyrido[1,2-a]pyrimidinium inner salt]
≥ 80%: mortality at 10 ppm [2] | mortality at 50 ppm [2]

COc1cccc(-c2c([O-])[n+](Cc3cncnc3)c3ccccn3c2=O)c1 [Compound 5, 2-hydroxy-3-(3-methoxyphenyl)-4-oxo-1-(5-pyrimidinylmethyl)-4H-pyrido[1,2-a]pyrimidinium inner salt]
≥ 80%: mortality at 10 ppm [2] | mortality at 50 ppm [2] | mortality at 10 ppm [3] | mortality at 50 ppm [3]

O=c1c(-c2cc(C(F)(F)F)ccc2F)c([O-])[n+](Cc2cncnc2)c2ccccn12 [Compound 10, 3-[2-fluoro-5-(trifluoromethyl)phenyl]-2-hydroxy-4-oxo-1-(5-pyrimidinylmethyl)-4H-pyrido[1,2-a]pyrimidinium inner salt]
≥ 80%: mortality at 2 ppm [1] | mortality at 10 ppm [1] | mortality at 10 ppm [2] | mortality at 50 ppm [2] | mortality at 250 ppm [2] | mortality at 50 ppm [3] | mortality at 10 ppm [5] | mortality at 50 ppm [5]

COc1ccccc1-c1c([O-])[n+](Cc2cncnc2)c2ccccn2c1=O [Compound 4, 2-hydroxy-3-(2-methoxyphenyl)-4-oxo-1-(5-pyrimidinylmethyl)-4H-pyrido[1,2-a]pyrimidinium inner salt]
≥ 80%: mortality at 50 ppm [2] | mortality at 50 ppm [3]
